Laboratory results from PMC9472817, “Structural and functional characterisation of a stable, broad-specificity multimeric sialidase from the oral pathogen Tannerella forsythia” (Biochemical Journal, 2022).
Read-outs that look alike come from different tables or passages of the source.

Columns and labels:
NanH-D237A [1] = target: T1, NanH-D237A (Tannerella forsythia, UniProt G8UIQ1, D224A); assay: crystal structure ([…] soak, […] Å) and tryptophan fluorescence quenching; assay type: binding
T1 construct: gene BFO_2207; C-terminally hexahistidine-tagged NanH
T1 sequence (G8UIQ1 21-539 D224A): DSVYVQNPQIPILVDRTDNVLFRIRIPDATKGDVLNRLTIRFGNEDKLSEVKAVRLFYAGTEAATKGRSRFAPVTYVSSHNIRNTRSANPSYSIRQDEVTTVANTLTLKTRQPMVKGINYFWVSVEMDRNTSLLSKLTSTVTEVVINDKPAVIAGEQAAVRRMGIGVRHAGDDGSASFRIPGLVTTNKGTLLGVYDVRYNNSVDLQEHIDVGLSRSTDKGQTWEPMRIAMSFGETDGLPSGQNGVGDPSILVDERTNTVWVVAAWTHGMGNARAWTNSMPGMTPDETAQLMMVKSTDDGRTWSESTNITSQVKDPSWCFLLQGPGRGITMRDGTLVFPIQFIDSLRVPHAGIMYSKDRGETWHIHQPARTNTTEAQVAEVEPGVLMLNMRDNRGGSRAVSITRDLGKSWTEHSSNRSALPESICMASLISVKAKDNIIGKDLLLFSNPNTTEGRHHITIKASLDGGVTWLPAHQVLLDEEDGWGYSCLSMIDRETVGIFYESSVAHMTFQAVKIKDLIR

NanH-D237A [2] = target: T1, NanH-D237A; assay: as above; assay type: binding; remark: listed apart in the source

Row | Compound | Kd (NanH-D237A [1]) [µM] | Kd (NanH-D237A [2]) [µM]
1 | CC(=O)N[C@H]1[C@H]([C@H](O)[C@H](O)CO)O[C@@](O[C@H]2[C@@H](O)[C@@H](CO)O[C@@H](O[C@H]3[C@H](O)[C@@H](O)C(O)O[C@@H]3CO)[C@@H]2O)(C(=O)O)C[C@@H]1O (some centres unmarked) [3-SL] | 305 ± 91.5 | 
2 | CC(=O)N[C@H]1[C@H]([C@H](O)[C@H](O)CO)O[C@@](OC[C@H]2O[C@@H](O[C@H]3[C@H](O)[C@@H](O)C(O)O[C@@H]3CO)[C@H](O)[C@@H](O)[C@H]2O)(C(=O)O)C[C@@H]1O (some centres unmarked) [6-SL] |  | 133 ± 48.3
